From article doi:10.1101/2025.06.19.660642, “Discovery of orally bioavailable Zika and West Nile Virus antiviral compounds targeting the NS2B-NS3 protease” (bioRxiv, 2025)
Read-outs that look alike come from different tables or passages of the source.

Key:
ZIKV NS2B-NS3 protease = molecular target: T1, ZIKV NS2B-NS3 protease (Zika virus, UniProt A0A024B7W1); assay: ZIKV NS2B-NS3 protease biochemical FRET assay
T1 construct: directed at the co-expressed ZIKV NS2B-NS3 protease

WNV NS2B-NS3 protease = molecular target: T2, WNV NS2B-NS3 protease (West Nile virus, UniProt P06935); assay: WNV NS2B-NS3 protease biochemical inhibition
T2 construct: some activity against the WNV NS2B-NS3 protease

MDR1-MDCK permeability = type: in vitro ADME; conditions: dog; for Papp A→B: MDCK-MDR1, A→B
Procedure: (§1) Figure 5. (A) Further characterization of ASAP-0027808. Papp was determined in MDR1-MDCK cells. Antiviral assays were performed in Vero E6 cells in a 7-day infection using 0.5 uM CP100356 as a P-gp inhibitor (see Supporting Information for more details). (B) The compound was successfully crystallized with ZIKV NS2B-NS3. ASAP-0016806 and ASAP-0027808 both appear to interact with the same residues (catalytic triad His51/Asp75/Ser135 colored yellow, other key residues Tyr161, NS2B Ser81, and NS2B Asp83 colored green). (C) Dose-dependent suppression of ZIKV-induced cytopathy in VeroE6 cells (n=2); no changes to cell viability of uninfected cells treated with the inhibitor was observed. Cells were co-treated with 0.5 μM CP100356 (as P-gp inhibitor). TEXT PRINTED IN THE PICTURE: (A) ASAP-0027808: ZIKV NS2B-NS3 Ki (μM): 0.090; ZIKV EC50 / CC50 (μM): 4.6 / >50; WNV NS2B-NS3 Ki (μM): 2.9; MW (g/mol): 313; CLint,app, HLM (μL/min/mg): < 10; MDR1-MDCK Papp A→B, B→A (10^-6 cm/sec): 2.0 ,11.0; Kinetic solubility (pH 7.4, μM): 279; LogD: 0.9

ZIKV = ZIKV antiviral assay (virus-induced cytopathy) in Vero E6 cells with P-gp inhibitor; type: cell-based; conditions: Zika virus, Vero C1008, 168 h, read-out: ZIKV EC50
Procedure: as §1

[1] = ZIKV NS2B-NS3 Ki (uM), library 1, supplement
[2] = library 1, supplement, read-out: ZIKV NS2B-NS3 Ki

T2 sequence (P06935 1424-1463): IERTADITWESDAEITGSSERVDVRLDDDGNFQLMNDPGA
T2 sequence (P06935 1502-1679): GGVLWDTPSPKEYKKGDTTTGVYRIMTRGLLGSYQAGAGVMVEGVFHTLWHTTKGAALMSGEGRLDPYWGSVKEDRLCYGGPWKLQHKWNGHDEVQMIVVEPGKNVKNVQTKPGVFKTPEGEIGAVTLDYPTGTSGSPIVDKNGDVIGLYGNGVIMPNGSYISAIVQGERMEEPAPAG
T1 sequence (A0A024B7W1 1503-1680): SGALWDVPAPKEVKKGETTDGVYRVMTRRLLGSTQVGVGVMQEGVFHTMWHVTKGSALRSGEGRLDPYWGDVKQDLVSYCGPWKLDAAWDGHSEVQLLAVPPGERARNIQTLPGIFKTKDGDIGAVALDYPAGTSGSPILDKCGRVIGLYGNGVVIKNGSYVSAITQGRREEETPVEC
T1 sequence (A0A024B7W1 1425-1464): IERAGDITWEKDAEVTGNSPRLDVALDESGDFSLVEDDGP

`OCC#C[C@@H](Nc1ccc2c(c1)CNC2)c1cc(Cl)cc2[nH]ncc12` [ASAP-0028990] showed a Ki (ZIKV NS2B-NS3 protease; ZIKV NS2B-NS3 Ki) of 0.99 µM, a Ki (WNV NS2B-NS3 protease) of 21 µM and a logD (LogD) of 0.5. It also gave a Papp A→B (MDR1-MDCK permeability) of 0.59 ×10⁻⁶ cm/s.
Compound `CC(C)NC(=O)[C@@H](Nc1ccc2c(c1)CNC2)c1cc(Cl)cc2[nH]ncc12` [ASAP-0029000] has a Ki (ZIKV NS2B-NS3 protease; ZIKV NS2B-NS3 Ki) of 0.077 µM, a Ki (WNV NS2B-NS3 protease) of 0.32 µM and a logD (LogD) of 0.5. For the same compound, the Papp B→A (MDR1-MDCK permeability; MDCK-MDR1, B→A) was 2.2 ×10⁻⁶ cm/s.
`C[C@H](N)c1cccc(NC(=O)c2cc(Cl)cc(NC(=O)OCc3ccccc3)c2)c1` [ASAP-0021091, C[C@H](N)c1cccc(NC(=O)c2cc(Cl)cc(NC(=O)OCc3ccccc3)c2)c1] gave a Ki (ZIKV NS2B-NS3 protease; [1]) of 12.3 µM.
`CC(C)NC(=O)[C@@H](Nc1ccc2c(c1)CN(C)C2)c1cc(Cl)cc2[nH]ncc12` [ASAP-0031156] gave a Ki (ZIKV NS2B-NS3 protease; ZIKV NS2B-NS3 Ki) of 0.48 µM and a Ki (WNV NS2B-NS3 protease) of 1.6 µM.
With `O=C(Nc1cc(Cl)cc(C(=O)NC[C@H]2CNC3(CC3)CO2)c1)OCc1ccccc1` [ASAP-0021445, O=C(Nc1cc(Cl)cc(C(=O)NC[C@H]2CNC3(CC3)CO2)c1)OCc1ccccc1 ¦&1:13¦] the “ZIKV NS2B-NS3 pKi” value (ZIKV NS2B-NS3 protease; library 1, supplement) was under 4.05 and the Ki (ZIKV NS2B-NS3 protease; [2]) was over 89.3 µM.
For `NC[C@H]1C[C@@H](CNC(=O)c2cc(Cl)cc(NC(=O)OCc3ccccc3)c2)CCO1` [ASAP-0021664, NC[C@H]1C[C@@H](CNC(=O)c2cc(Cl)cc(NC(=O)OCc3ccccc3)c2)CCO1 ¦&1:2,&2:4¦], the “ZIKV NS2B-NS3 pKi” value (ZIKV NS2B-NS3 protease; library 1, supplement) was under 4.05 and the Ki (ZIKV NS2B-NS3 protease; [2]) was over 89.3 µM.
With `NC[C@]1(F)C[C@@H](NC(=O)c2cc(Cl)cc(NC(=O)OCc3ccccc3)c2)C1` [ASAP-0021480, NC[C@]1(F)C[C@@H](NC(=O)c2cc(Cl)cc(NC(=O)OCc3ccccc3)c2)C1] the Ki (ZIKV NS2B-NS3 protease; [1]) was 61.6 µM.
Compound `O=C(Nc1cc(Cl)cc(C(=O)NCC2(CO)CCNCC2)c1)OCc1ccccc1` [ASAP-0021096, O=C(Nc1cc(Cl)cc(C(=O)NCC2(CO)CCNCC2)c1)OCc1ccccc1] has a Ki (ZIKV NS2B-NS3 protease; [1]) of over 89.3 µM.
`O=C(Nc1cc(Cl)cc(C(=O)Nc2ncc(C3CNC3)s2)c1)OCc1ccccc1` [ASAP-0021562, O=C(NC1=CC(Cl)=CC(C(=O)NC2=NC=C(C3CNC3)S2)=C1)OCC1=CC=CC=C1] showed a Ki (ZIKV NS2B-NS3 protease; [1]) of over 89.3 µM.
`NCc1nc(CNC(=O)c2cc(Cl)cc(NC(=O)OCc3ccccc3)c2)cs1` [ASAP-0021116, NCc1nc(CNC(=O)c2cc(Cl)cc(NC(=O)OCc3ccccc3)c2)cs1] showed a Ki (ZIKV NS2B-NS3 protease; [1]) of over 89.3 µM.
With `C[C@@H](N)c1ccc(NC(=O)c2cc(Cl)cc(NC(=O)OCc3ccccc3)c2)cc1` [ASAP-0017733, C[C@@H](N)c1ccc(NC(=O)c2cc(Cl)cc(NC(=O)OCc3ccccc3)c2)cc1 ¦&1:1¦] the “ZIKV NS2B-NS3 pKi” value (ZIKV NS2B-NS3 protease; library 1, supplement) was 4.88 and the Ki (ZIKV NS2B-NS3 protease; [2]) was 13.1 µM.
For `C=CC[C@@]1(NC(=O)c2cc(Cl)cc(NC(=O)OCc3ccccc3)c2)CCNC1` [ASAP-0021490, C=CC[C@@]1(NC(=O)c2cc(Cl)cc(NC(=O)OCc3ccccc3)c2)CCNC1 ¦&1:3¦], the “ZIKV NS2B-NS3 pKi” value (ZIKV NS2B-NS3 protease; library 1, supplement) was under 4.05 and the Ki (ZIKV NS2B-NS3 protease; [2]) was over 89.3 µM.
With `Cc1cc(C(Nc2ccc3c(c2)CNC3)C(=O)NCC(F)F)cc(C(F)(F)F)c1` (stereo not drawn) [ASAP-0031651] the Ki (ZIKV NS2B-NS3 protease; Ki, ZIKV NS2B-NS3) was 0.0078 µM and the EC50 (ZIKV) was 0.45 µM.
With `C[C@@H](N)c1cccc(NC(=O)c2cc(Cl)cc(NC(=O)OCc3ccccc3)c2)c1` [ASAP-0021650, C[C@@H](N)c1cccc(NC(=O)c2cc(Cl)cc(NC(=O)OCc3ccccc3)c2)c1] the Ki (ZIKV NS2B-NS3 protease; [1]) was 20.4 µM.
For `N#C[C@@H](Nc1ccc2c(c1)CNC2)c1cc(Cl)cc2[nH]ncc12` [ASAP-0028904], the Ki (ZIKV NS2B-NS3 protease; ZIKV NS2B-NS3 Ki) was 0.1 µM, the Ki (WNV NS2B-NS3 protease) was 18 µM and the logD (LogD) was 0.9. The Papp A→B (MDR1-MDCK permeability) was 1.1 ×10⁻⁶ cm/s.
Work on `NCc1cc(F)cc(NC(=O)c2cc(Cl)cc(NC(=O)OCc3ccccc3)c2)c1` [ASAP-0021659, NCc1cc(F)cc(NC(=O)c2cc(Cl)cc(NC(=O)OCc3ccccc3)c2)c1] yielded a Ki (ZIKV NS2B-NS3 protease; [1]) of 5.26 µM.
`O=C(Nc1cc(Cl)cc(C(=O)Nc2cnc3n2CCNC3)c1)OCc1ccccc1` [ASAP-0021001, O=C(Nc1cc(Cl)cc(C(=O)Nc2cnc3n2CCNC3)c1)OCc1ccccc1] gave a Ki (ZIKV NS2B-NS3 protease; [1]) of over 89.3 µM.
Work on `NCCCc1ccnc(NC(=O)c2cc(Cl)cc(NC(=O)OCc3ccccc3)c2)c1` [ASAP-0021210, NCCCc1ccnc(NC(=O)c2cc(Cl)cc(NC(=O)OCc3ccccc3)c2)c1] yielded a Ki (ZIKV NS2B-NS3 protease; [1]) of 16.5 µM.
In the case of `O=C(Nc1cc(Cl)cc(C(=O)NC[C@@H]2CC3(CNC3)CO2)c1)OCc1ccccc1` [ASAP-0021589, O=C(Nc1cc(Cl)cc(C(=O)NC[C@@H]2CC3(CNC3)CO2)c1)OCc1ccccc1 ¦&1:13¦], the “ZIKV NS2B-NS3 pKi” value (ZIKV NS2B-NS3 protease; library 1, supplement) is reported as 4.38 and the Ki (ZIKV NS2B-NS3 protease; [2]) is reported as 41.3 µM.
`Cn1nc(NC(=O)c2cc(Cl)cc(NC(=O)OCc3ccccc3)c2)c2c1CNC2` [ASAP-0021036, Cn1nc(NC(=O)c2cc(Cl)cc(NC(=O)OCc3ccccc3)c2)c2c1CNC2] showed a Ki (ZIKV NS2B-NS3 protease; [1]) of over 89.3 µM.
